From patent publication US20230117155A1, “FRACTION EXTRACT OF MELISSA OFFICINALIS LEAVES AND NOVEL PHARMACEUTICAL COMPOSITION INCLUDING SAME” (priority 2020, published 2023) come the findings set out here.

Entries after “also recorded” stand apart in the source; their conditions may differ.

This experiment has as its system HUVECs (human umbilical vein endothelial cells). The experiment is described as follows: HUVEC tube formation, angiogenesis inhibitory activity assay. In kind it is cell-based. Particulars: single ingredient, final concentration 50 μg/ml; FIG. 9. As for the experimental part: A 48-well plate was coated with 200 μl of 10% matrigel, and incubated at 4° C. After 4 hours the temperature was raised to 37° C., and 1 hour later, the test substances listed in Tables 2 and 3 below were added to a final concentration of 50 μg/ml, and then 5×10^4 HUVECs (human umbilical vein endothelial cells) were added to each well, and pictures were taken the next day.
For the compound `CCOC(=O)Cc1ccc(O)c(O)c1` [EDPA, Ethyl 2-(3,4-dihydroxyphenyl) acetate], the “angiogenesis inhibitory activity in HUVEC tube formation assay” value (“angiogenesis inhibitory activity” below) is “angiogenesis inhibitory activities; also recorded: highest angiogenesis inhibitory activity”.
Consider `COC(=O)[C@@H](Cc1ccc(O)c(O)c1)OC(=O)/C=C/c1ccc(O)c(O)c1` [RME, Rosmarinic acid methyl ester], for which the “angiogenesis inhibitory activity” value is on record as “angiogenesis inhibitory activities”.
For the compound `O=C(/C=C/c1ccc(O)c(O)c1)O[C@H](Cc1ccc(O)c(O)c1)C(=O)O` [Rosmarinic acid], the “angiogenesis inhibitory activity” value is given as “angiogenesis inhibitory activities”.
Regarding `O=C(O)/C=C/c1ccc(O)c(O)c1` [caffeic acid], the “angiogenesis inhibitory activity” value is given as “angiogenesis inhibitory activities”.
